Among the data in US12303509B2, “Compounds for the treatment of BRAF-associated diseases and disorders” (Pfizer Inc., priority 2020, dated 2025) are IC50, efflux ratio and Papp values, retold here.

Each structure is given as a SMILES string. Structures can show the parent of a compound that is named as a salt.

For orientation: IC50 means the concentration at which inhibition is half-maximal. By efflux ratio is commonly meant the permeability from basolateral to apical divided by that in the opposite direction, in the common usage. One may read the Papp as the rate of passage across a membrane or cell layer, normalised by area and donor concentration.

One data set relates to A375 cells. The experiment in a line: Cellular phospho-ERK inhibition assay in A375 cells. Conditions: Homo sapiens, A-375, A375 cells (head prints A357), 2 hours treatment, read-out: A357 cell IC50. Format: cell-based. In a few lines:
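A375 (DMEM) or H1755 (RPMI) cells in 10% FBS treated 2 h at 37 °C with 9-point series, 66 pM–10 μM, 0.25% DMSO. Phospho-ERK1/2 (Thr202/Tyr204) measured by In Cell Western, normalised to GAPDH and to DMSO and 10 μM binimetinib controls; IC50 by 4-parameter fit.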

Another data set concerns the target P-gp (MDR1) (Homo sapiens (Human), UniProt P08183). The experiment in a line: MDR1 LLC-PK1 permeability assay: efflux ratio. Format: in vitro ADME. Conditions: pig. An excerpt:
(§1) Final organic concentration in the assay was 1%.

Data set [1] in a line: MDR1 LLC-PK1 and BCRP MDCKII permeability assay: permeability coefficient (Papp). Format: in vitro ADME.
Description: as §1

Data set [2] has as its target full-length FLAG-tagged B-Raf(V600E) (Homo sapiens (Human), UniProt P15056, V600E). Briefly: BRAF V600E enzyme assay (TR-FRET competitive displacement). Format: binding. The note with it: averaged IC50; TR-FRET tracer displacement, 60 min. The method in brief:
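Displacement of 50 nM Tracer 1710 from 5 nM full-length N-terminally FLAG-tagged B-Raf(V600E), detected by TR-FRET with 0.5 nM Eu anti-FLAG antibody, in 25 mM HEPES pH 7.4, 10 mM MgCl2, 2% DMSO; 60 min at ~22 °C. Compounds 11-point, 3-fold from 10 μM; IC50 from 4-parameter fit at 50 POC.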

The next data set concerns H1755 cells. The experiment in a line: Cellular phospho-ERK inhibition assay in H1755 cells. The format is cell-based. The note with it: Homo sapiens, NCI-H1755, 2 hours treatment, read-out: H1755 Cell IC50. The method, then:
A375 and H1755 cells were obtained from the American Type Culture Collection (ATCC, Rockville, MD). A375 cells were maintained in DMEM growth medium containing 10% FBS. H1755 cells were maintained in RPMI growth medium containing 10% FBS.
Cells were harvested according to standard protocols, counted and plated onto flat-bottom, 96-well tissue culture plates (Costar #3599) at 2.5×10^4 cells/well for A375 cells and 1.5×10^4 cells/well for H1755 cells in 100 μL/well of growth medium containing 10% FBS. After an overnight incubation at 37° C. with 5% CO2 cells were treated for 2 hours at 37° C., 5% CO2 with compounds prepared as a 9-point, 1:3.33 fold dilution series with final compound concentrations ranging from 66 pM-10 μM and a constant DMSO concentration of 0.25%. Control wells contained either 0.25% DMSO alone (uninhibited control) or 10 μM binimetinib (complete inhibition control). The levels of phosphorylated ERK are determined using an In Cell Western protocol: following compound incubation, growth medium was discarded, and cells were fixed with 0.4% formaldehyde in PBS for 20 minutes at room temperature. Cells were permeabilized with 100% methanol for 10 minutes at room temperature. Plates were washed with PBS containing 0.05% Tween-20 and blocked for 1 hour at room temperature with LI-COR Blocking Buffer (LI-COR Biosciences; Cat #927-40000). Plates were then incubated for 2 hours at room temperature with 50 μL of a 1:400 dilution of anti-phospho-ERK1/2 (Thr202/Tyr204) (Cell Signaling; Cat #9101) and a 1:1000 dilution of anti-GAPDH (Millipore; Cat #MAB374) in LI-COR blocking buffer containing 0.05% Tween-20. Plates were washed with PBS containing […] Tween-20 then incubated at room temperature for 1 hour with 50 μL of a 1:1000 dilution of anti-rabbit AlexaFluor 680 (Life Technologies; Cat #A21109) and a 1:1000 dilution of anti-mouse IRDye 800CW (LI-COR; Cat #926-32210) in LI-COR blocking buffer containing 0.05% Tween-20. Plates were analyzed by reading on an Odyssey CLx infrared scanner. For each well, the phospho-ERK signal was normalized to the GAPDH signal and converted to POC using the following equation:
[formula] • Where: • Xmax Average Uninhibited Controls • Xmin Average Complete Inhibition Controls IC50 values were then calculated using a 4-parameter fit in XLfit software and are provided in Table A1.

The next data set has as its target BCRP (Homo sapiens (Human), UniProt Q9UNQ0). Briefly: BCRP MDCKII permeability assay: efflux ratio. Conditions: dog. Format: in vitro ADME.

full-length FLAG-tagged B-Raf(V600E), sequence (P15056 whole entry V600E): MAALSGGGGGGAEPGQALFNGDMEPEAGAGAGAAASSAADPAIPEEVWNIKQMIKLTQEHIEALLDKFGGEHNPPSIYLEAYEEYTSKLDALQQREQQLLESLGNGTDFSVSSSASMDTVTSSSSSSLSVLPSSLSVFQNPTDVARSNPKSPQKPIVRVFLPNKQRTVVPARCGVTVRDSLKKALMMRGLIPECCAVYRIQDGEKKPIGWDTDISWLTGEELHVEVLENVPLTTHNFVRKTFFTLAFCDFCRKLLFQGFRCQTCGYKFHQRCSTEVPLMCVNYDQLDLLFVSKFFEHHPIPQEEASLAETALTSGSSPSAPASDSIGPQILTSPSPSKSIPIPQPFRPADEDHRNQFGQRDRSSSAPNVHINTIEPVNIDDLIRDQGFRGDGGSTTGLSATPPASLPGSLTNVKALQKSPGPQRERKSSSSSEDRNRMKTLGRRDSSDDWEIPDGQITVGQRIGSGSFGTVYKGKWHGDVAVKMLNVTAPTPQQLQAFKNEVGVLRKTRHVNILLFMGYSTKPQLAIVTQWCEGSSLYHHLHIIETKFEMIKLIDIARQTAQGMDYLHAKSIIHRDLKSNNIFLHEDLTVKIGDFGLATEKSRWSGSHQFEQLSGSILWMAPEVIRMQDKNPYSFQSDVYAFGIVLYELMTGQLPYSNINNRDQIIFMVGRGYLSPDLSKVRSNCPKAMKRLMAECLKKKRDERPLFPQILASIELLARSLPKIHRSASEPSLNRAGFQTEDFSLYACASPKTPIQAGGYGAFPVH
P-gp (MDR1), sequence (P08183 whole entry, species assumed): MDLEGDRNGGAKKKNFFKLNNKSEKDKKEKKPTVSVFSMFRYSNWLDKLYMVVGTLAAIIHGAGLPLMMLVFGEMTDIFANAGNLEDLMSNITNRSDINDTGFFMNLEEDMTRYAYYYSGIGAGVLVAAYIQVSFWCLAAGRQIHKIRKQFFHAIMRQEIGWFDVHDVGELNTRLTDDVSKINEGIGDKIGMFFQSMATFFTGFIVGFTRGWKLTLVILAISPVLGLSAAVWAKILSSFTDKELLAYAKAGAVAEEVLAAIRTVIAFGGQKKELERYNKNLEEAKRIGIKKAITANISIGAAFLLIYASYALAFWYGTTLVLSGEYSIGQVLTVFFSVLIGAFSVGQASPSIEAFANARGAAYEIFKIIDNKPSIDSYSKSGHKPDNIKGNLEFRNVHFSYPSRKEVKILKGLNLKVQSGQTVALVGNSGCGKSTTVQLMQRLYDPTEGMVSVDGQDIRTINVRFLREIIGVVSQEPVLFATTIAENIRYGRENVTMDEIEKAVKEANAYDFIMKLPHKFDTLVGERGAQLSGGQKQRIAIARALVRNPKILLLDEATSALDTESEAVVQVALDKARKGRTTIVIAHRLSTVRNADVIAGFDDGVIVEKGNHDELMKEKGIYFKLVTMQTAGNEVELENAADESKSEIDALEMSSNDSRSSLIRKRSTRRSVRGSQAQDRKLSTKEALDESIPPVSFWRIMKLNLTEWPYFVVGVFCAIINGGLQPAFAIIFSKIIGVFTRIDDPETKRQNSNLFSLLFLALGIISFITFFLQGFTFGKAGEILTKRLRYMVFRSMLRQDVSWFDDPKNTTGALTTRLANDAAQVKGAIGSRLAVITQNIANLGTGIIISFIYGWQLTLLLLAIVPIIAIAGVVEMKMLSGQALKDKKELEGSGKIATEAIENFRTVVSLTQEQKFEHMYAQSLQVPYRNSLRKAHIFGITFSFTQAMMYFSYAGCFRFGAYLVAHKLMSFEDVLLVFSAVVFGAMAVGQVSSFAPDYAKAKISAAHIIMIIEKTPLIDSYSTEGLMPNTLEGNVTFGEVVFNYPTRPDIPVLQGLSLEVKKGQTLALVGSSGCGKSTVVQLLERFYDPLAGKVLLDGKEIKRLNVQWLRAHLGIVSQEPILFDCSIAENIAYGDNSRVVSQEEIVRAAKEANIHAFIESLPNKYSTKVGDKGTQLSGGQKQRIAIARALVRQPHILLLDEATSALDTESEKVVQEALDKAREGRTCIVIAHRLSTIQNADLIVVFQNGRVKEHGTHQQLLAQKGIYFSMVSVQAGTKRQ
BCRP, sequence (Q9UNQ0 whole entry): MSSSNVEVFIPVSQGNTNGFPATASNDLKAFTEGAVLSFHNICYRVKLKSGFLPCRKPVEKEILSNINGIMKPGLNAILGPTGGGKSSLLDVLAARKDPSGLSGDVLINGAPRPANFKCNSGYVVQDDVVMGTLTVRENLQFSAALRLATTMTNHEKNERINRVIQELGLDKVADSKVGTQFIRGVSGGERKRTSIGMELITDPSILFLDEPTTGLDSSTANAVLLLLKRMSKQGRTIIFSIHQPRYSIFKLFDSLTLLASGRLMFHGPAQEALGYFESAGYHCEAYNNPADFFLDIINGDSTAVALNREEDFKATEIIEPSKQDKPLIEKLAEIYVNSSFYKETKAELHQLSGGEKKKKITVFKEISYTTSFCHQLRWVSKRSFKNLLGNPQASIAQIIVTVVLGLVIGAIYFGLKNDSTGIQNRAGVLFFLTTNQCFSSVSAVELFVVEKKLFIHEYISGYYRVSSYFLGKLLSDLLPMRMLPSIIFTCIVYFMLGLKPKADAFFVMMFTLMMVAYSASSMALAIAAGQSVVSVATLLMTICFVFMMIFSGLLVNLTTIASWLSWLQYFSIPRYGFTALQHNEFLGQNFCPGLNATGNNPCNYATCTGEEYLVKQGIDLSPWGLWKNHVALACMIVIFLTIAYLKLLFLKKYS

For the compound `Cn1cnc2ccc(Nc3c(F)ccc(NS(=O)(=O)N4CCCC4)c3Cl)c(Br)c2c1=O` [Example 11, N-(3-((5-bromo-3-methyl-4-oxo-3,4-dihydroquinazolin-6-yl)amino)-2-chloro-4-fluorophenyl)pyrrolidine-1-sulfonamide trifluoroacetate], the results for the IC50 (with A375 cells; in data set [2]; in the data set on H1755 cells) were 17 nM, 7 nM and 75 nM, respectively. The efflux ratio at 2 h, 1 µM amounted to 1.3 on P-gp (MDR1) and 0.8 at BCRP. The Papp at 2 h, 1 µM in data set [1] is 28 ×10⁻⁶ cm/s.

Consider `Cn1cnc2ccc(Nc3c(F)ccc(NS(=O)(=O)N4C[C@@H](F)[C@@H](F)C4)c3Cl)c(F)c2c1=O` [Example 21, cis-N-(2-chloro-4-fluoro-3-((5-fluoro-3-methyl-4-oxo-3,4-dihydroquinazolin-6-yl)amino)phenyl)-3,4-difluoropyrrolidine-1-sulfonamide], for which the half-inhibitory concentration (IC50) with A375 cells stood at 7 nM; in data set [2], 3 nM; with H1755 cells it was 33 nM. Also, the efflux ratio at 2 h, 1 µM at P-gp (MDR1) turned out to be 5.6; at BCRP, 13. Further, in data set [1], the Papp at 2 h, 1 µM was found to be 26 ×10⁻⁶ cm/s.

With `Cn1cnc2ccc(Nc3c(F)ccc(NS(=O)(=O)N4C[C@@H](F)[C@@H](F)C4)c3Cl)c(Cl)c2c1=O` [Example 22, cis-N-(2-chloro-3-((5-chloro-3-methyl-4-oxo-3,4-dihydroquinazolin-6-yl)amino)-4-fluorophenyl)-3,4-difluoropyrrolidine-1-sulfonamide], the figures for the IC50 (with A375 cells; in data set [2]; with H1755 cells) were 15 nM, 3 nM and 52 nM, respectively. The efflux ratio at 2 h, 1 µM amounted to 2.7 at P-gp (MDR1) and 5.6 at BCRP. This compound gave a Papp at 2 h, 1 µM in data set [1] of 34 ×10⁻⁶ cm/s.

Regarding `Cn1cnc2ccc(Nc3c(F)ccc(NS(=O)(=O)N4CCC(F)(F)C4)c3Cl)c(F)c2c1=O` [Example 23, N-(2-chloro-4-fluoro-3-((5-fluoro-3-methyl-4-oxo-3,4-dihydroquinazolin-6-yl)amino)phenyl)-3,3-difluoropyrrolidine-1-sulfonamide], the IC50 was found to be 6 nM with A375 cells, 3 nM in data set [2] and 29 nM with H1755 cells. For the same compound, the efflux ratio at 2 h, 1 µM at P-gp (MDR1) stood at 3; on BCRP, 17.6. Moreover, the Papp at 2 h, 1 µM in data set [1] came out at 24 ×10⁻⁶ cm/s.

`Cn1cnc2ccc(Nc3c(F)ccc(NS(=O)(=O)N4CC[C@@H](F)C4)c3Cl)c(Br)c2c1=O` [Example 24, (R)-N-(3-((5-bromo-3-methyl-4-oxo-3,4-dihydroquinazolin-6-yl)amino)-2-chloro-4-fluorophenyl)-3-fluoropyrrolidine-1-sulfonamide trifluoroacetate]: the figures for the IC50 (in the data set on A375 cells; in data set [2]; in the data set with H1755 cells) were 8 nM, 2 nM and 25 nM, respectively. The efflux ratio at 2 h, 1 µM at P-gp (MDR1) is 2.5; at BCRP it was 2.6. The Papp at 2 h, 1 µM in data set [1] is 27 ×10⁻⁶ cm/s.

Take `Cn1cnc2ccc(Nc3c(F)ccc(NS(=O)(=O)N4CCC(F)(F)C4)c3Cl)c(Cl)c2c1=O` [Example 25, N-(2-chloro-3-((5-chloro-3-methyl-4-oxo-3,4-dihydroquinazolin-6-yl)amino)-4-fluorophenyl)-3,3-difluoropyrrolidine-1-sulfonamide trifluoroacetate]: the IC50 with A375 cells stood at 16 nM; in data set [2], 2 nM; in the data set on H1755 cells, 94 nM. The results for the efflux ratio at 2 h, 1 µM on P-gp (MDR1) and at BCRP were 1.6 and 2.4, respectively. Also, the Papp at 2 h, 1 µM in data set [1] was determined as 30 ×10⁻⁶ cm/s.

Regarding `Cn1cnc2ccc(Nc3c(F)ccc(NS(=O)(=O)N4CC[C@@H](OC(F)F)C4)c3Cl)c(F)c2c1=O` [Example 26, (R)-N-(2-chloro-4-fluoro-3-((5-fluoro-3-methyl-4-oxo-3,4-dihydroquinazolin-6-yl)amino)phenyl)-3-(difluoromethoxy)pyrrolidine-1-sulfonamide], the IC50 in the data set on A375 cells is 4 nM; in data set [2] it was 6 nM; in the data set with H1755 cells it was 15 nM. Besides, the efflux ratio at 2 h, 1 µM on P-gp (MDR1) was 3.3; at BCRP, 3.7. In data set [1], the Papp at 2 h, 1 µM was 31 ×10⁻⁶ cm/s.

For `Cn1cnc2ccc(Nc3c(F)ccc(NS(=O)(=O)N4CC[C@H](F)C4)c3Cl)c(F)c2c1=O` [Example 27, (S)-N-(2-chloro-4-fluoro-3-((5-fluoro-3-methyl-4-oxo-3,4-dihydroquinazolin-6-yl)amino)phenyl)-3-fluoropyrrolidine-1-sulfonamide trifluoroacetate], the IC50 in the data set on A375 cells worked out at 5 nM; in data set [2], 5 nM; in the data set with H1755 cells, 27 nM. Also, the efflux ratio at 2 h, 1 µM at P-gp (MDR1) turned out to be 2.7; at BCRP, 4.4. For the same compound, the Papp at 2 h, 1 µM in data set [1] is 39 ×10⁻⁶ cm/s.

As for `Cn1cnc2ccc(Nc3c(F)ccc(NS(=O)(=O)N4CC[C@H](F)C4)c3Cl)c(Cl)c2c1=O` [Example 28, (S)-N-(2-chloro-3-((5-chloro-3-methyl-4-oxo-3,4-dihydroquinazolin-6-yl)amino)-4-fluorophenyl)-3-fluoropyrrolidine-1-sulfonamide], the IC50 is 7 nM with A375 cells, 4 nM in data set [2] and 38 nM in the data set with H1755 cells. Further, the values for the efflux ratio at 2 h, 1 µM on P-gp (MDR1) and at BCRP were 2 and 1.7, respectively. In data set [1], this compound had a Papp at 2 h, 1 µM of 37 ×10⁻⁶ cm/s.

In the case of `Cn1cnc2ccc(Nc3c(F)c(F)cc(NS(=O)(=O)N4CCCC4)c3Cl)c(Cl)c2c1=O` [Example 31, N-(2-chloro-3-((5-chloro-3-methyl-4-oxo-3,4-dihydroquinazolin-6-yl)amino)-4,5-difluorophenyl)pyrrolidine-1-sulfonamide trifluoroacetate], the IC50 was found to be 9 nM with A375 cells, 1 nM in data set [2] and 168 nM in the data set on H1755 cells. Further, the efflux ratio at 2 h, 1 µM on P-gp (MDR1) is 1.2; at BCRP, 1. This compound had a Papp at 2 h, 1 µM in data set [1] of 31 ×10⁻⁶ cm/s.

Regarding `CO[C@@H]1CCN(S(=O)(=O)Nc2cc(F)c(F)c(Nc3ccc4ncn(C)c(=O)c4c3Cl)c2Cl)C1` [Example 32, (R)-N-(2-chloro-3-((5-chloro-3-methyl-4-oxo-3,4-dihydroquinazolin-6-yl)amino)-4,5-difluorophenyl)-3-methoxypyrrolidine-1-sulfonamide trifluoroacetate], the IC50 with A375 cells amounted to 5 nM; in data set [2] it was 2 nM; in the data set with H1755 cells, 83 nM. Also, the efflux ratio at 2 h, 1 µM at P-gp (MDR1) stood at 1.8; at BCRP it was 1. In data set [1], this compound showed a Papp at 2 h, 1 µM of 32 ×10⁻⁶ cm/s.

Consider `Cn1cnc2ccc(Nc3c(F)c(F)cc(NS(=O)(=O)N4CC[C@@H](F)C4)c3Cl)c(Cl)c2c1=O` [Example 33, (R)-N-(2-chloro-3-((5-chloro-3-methyl-4-oxo-3,4-dihydroquinazolin-6-yl)amino)-4,5-difluorophenyl)-3-fluoropyrrolidine-1-sulfonamide trifluoroacetate], for which the values for the IC50 (in the data set with A375 cells; in data set [2]; in the data set with H1755 cells) were 8 nM, 1 nM and 84 nM, respectively. Further, the efflux ratio at 2 h, 1 µM turned out to be 1.7 at P-gp (MDR1) and 2.2 on BCRP. This compound also registered a Papp at 2 h, 1 µM in data set [1] of 25 ×10⁻⁶ cm/s.
